Measurements: patent US20180142537A1, “WATER INJECTION SYSTEM COMPRISING BIOFILM SENSOR(S)” (TOTAL SA, priority 2015, published 2018)

Experiments:
[1] = system: biofilm; assay: Detection and removal of biofilm by batch or continuous injection of a biocide, seawater channels with ALVIM electrochemical biofilm probe; settings: Mediterranean seawater; for biofilm probe signal after batch injection of biocide: batch injections at biofilm phases 900 mV, 1100 mV and 1200 mV, FIG. 3
Method: Tests of biofilm detection were carried out in a pilot plant continuously fed with Mediterranean seawater (2 m deep, 50 m from the coast). The experimental conditions are favorable to the biofilm growth: laminar flowing and coastal seawater rich in microorganisms and suspended solids (Silt Density Index SDI5min=10-18).
Tests were carried out in a tank divided in 6 parallel channels with equal dimensions (0.76 m-long, 0.1 m-deep and 0.07 m-wide per channel). Each channel was continuously fed with from 10 L/h to 40 L/h of seawater pre-filtered with a multimedia filter (40 μm). The speed of water flowing in the channels ranges from 0.0003 to 0.0013 m/s.
Several channels are equipped with an electrochemical biofilm sensor whose working electrode is immersed within the flowing water phase. The electrochemical biofilm sensor is provided by ALVIM Srl. This biofilm sensor is able to detect the electrochemical activity of a biofilm (Faimali et al., 2010 and Pavanello et al., 2011). This activity is proportional to the surface covered with biofilm. Thus, when a biofilm appears on the flat surface of the working electrode, the electrical signal transmitted by the device instantly increases. When the working electrode is immersed in seawater, its potential is stable (around 600 mV). Whenever the working electrode detects the biofilm, its potential increases and reaches a potential threshold which relate to a given maximum value of the probe (signal saturation).
The following experiment has been performed on two parallel channels of the tank. Each one is equipped with an ALVIM probe. Two biocides were tested: sodium hypochlorite (ClO^−Na^+) and rocideDB (DBNPA). Batch injections of biocides have been carried out at different development phases of the biofilm (900 mV, 1100 mV and 1200 mV) in order to evaluate the resistance of the biofilm as a function of its maturation time.

[2] = system: biofilm; assay: Biofilm growth upstream and downstream an ultrafiltration unit, with sodium hypochlorite injection; settings: 2 ppm injected at pilot inlet, upstream of the ultrafiltration module; two injections; FIG. 5
Excerpt: A second series of tests has been carried out to study the efficiency of inline monitoring upstream and downstream an ultrafiltration unit (pore size 10-50 nm). This type of porous membranes is considered as being able to retain all microorganisms present in natural water.
Ultrafiltration modules are used according to the set up represented at FIG. 4. The UF modules are continuously fed with pre-filtered Mediterranean seawater (40 μm multimedia filter F, 2 m deep, 50 m from the coast, laminar flowing, Silt Density Index SDI5min=10-18). The flow rates of the UF modules are: 3000-4000 L/h and the recovery is around 80%.
Two probes are positioned at the following locations of the pilot: • Probe 1: at the feedwater point of the ultrafiltration module (0.4-0.6 m/s);
Probe 2: downstream the ultrafiltration module (flowing velocity=0.3-0.5 m/s).
A dose of sodium hypochlorite is injected at various times during the experiment at the inlet of the pilot (upstream probe 1) as shown on FIG. 5.

SMILES | biofilm probe signal after batch injection of biocide [1] | signal of probe 1 (feedwater) after biocide injection [2] | biofilm growth under continuous biocide injection ([1]; continuous injection of 1 mg/L)
N#CC(Br)(Br)C(N)=O [DBNPA, 2,2-dibromo-3-nitrilopropionamide] | brings the signal back to the baseline | – | –
OCl [sodium hypochlorite] | brings the signal back to the baseline | goes down rapidly to the baseline | no biofilm growth was detected
